Results reported in the NIST ThermoML archive (doi:10.1021/je060496l).
± gives the expanded uncertainty stated by the source.

Test: xn = mol fraction of the nth substance listed
Conditions: 101 kPa, Liquid

OCCCO [propan-1,3-diol] + OCC(O)CO
mass density [kg/m3]
Conditions	x2 = 0	x2 = 0.0841	x2 = 0.1712	x2 = 0.2615	x2 = 0.3552	x2 = 0.4524	x2 = 0.5534	x2 = 0.6585	x2 = 0.7677	x2 = 0.8815
298.15 K	1049.9 ± 1.6	1067.8 ± 1.7	1086.4 ± 1.7	1105.7 ± 1.7	1125.6 ± 1.7	1146.4 ± 1.8	1167.6 ± 1.8	1189.3 ± 1.8	1212.6 ± 1.9	1235.2 ± 1.9
303.15 K	1047 ± 1.7	1065 ± 1.7	1083.5 ± 1.8	1103 ± 1.8	1122.8 ± 1.8	1143.4 ± 1.8	1164.6 ± 1.9	1186.4 ± 1.9	1209 ± 1.9	1232.1 ± 2
308.15 K	1044.1 ± 1.8	1062 ± 1.8	1080.6 ± 1.8	1100 ± 1.8	1119.8 ± 1.9	1140.6 ± 1.9	1161.8 ± 1.9	1183.5 ± 2	1206.1 ± 2	1229.3 ± 2
313.15 K	1040.8 ± 1.8	1058.8 ± 1.9	1077.5 ± 1.9	1096.9 ± 1.9	1116.8 ± 1.9	1137.3 ± 2	1158.7 ± 2	1180.4 ± 2	1203 ± 2.1	1226.1 ± 2.1
318.15 K	1037.8 ± 1.9	1055.7 ± 1.9	1074.5 ± 1.9	1093.9 ± 2	1113.7 ± 2	1134.3 ± 2	1155.6 ± 2.1	1177.2 ± 2.1	1199.7 ± 2.1	1222.8 ± 2.2
323.15 K	1034.8 ± 2	1052.7 ± 2	1071.4 ± 2	1090.9 ± 2	1110.7 ± 2.1	1131.2 ± 2.1	1152.5 ± 2.1	1174.1 ± 2.2	1196.6 ± 2.2	1219.8 ± 2.2
328.15 K	1031.4 ± 2	1049.3 ± 2	1068.1 ± 2.1	1087.6 ± 2.1	1107.5 ± 2.1	1127.8 ± 2.2	1149.2 ± 2.2	1170.8 ± 2.2	1193.4 ± 2.3	1216.6 ± 2.3
333.15 K	1028.2 ± 2.1	1046.1 ± 2.1	1064.9 ± 2.1	1084.4 ± 2.2	1104.1 ± 2.2	1124.6 ± 2.2	1145.9 ± 2.3	1167.5 ± 2.3	1190 ± 2.3	1213.3 ± 2.4

CC(C)O [propan-2-ol] + OCC(O)CO
x2 = 0
Conditions	mass density [kg/m3]
298.15 K	780.6 ± 1.2
303.15 K	776.6 ± 1.2
308.15 K	772.3 ± 1.3
313.15 K	767.9 ± 1.3
318.15 K	763.3 ± 1.3
323.15 K	758.6 ± 1.4
328.15 K	753.8 ± 1.4
333.15 K	748.9 ± 1.5

CCCO [propan-1-ol] + OCC(O)CO
x2 = 0
Conditions	mass density [kg/m3]
298.15 K	799.6 ± 1.2
303.15 K	795.5 ± 1.2
308.15 K	791.5 ± 1.3
313.15 K	787.3 ± 1.3
318.15 K	783.3 ± 1.4
323.15 K	779 ± 1.4
328.15 K	774.9 ± 1.5
333.15 K	770.8 ± 1.6

OCC(O)CO [glycerol] + CCCO
mass density [kg/m3]
Conditions	x1 = 0.0676	x1 = 0.1402	x1 = 0.2185	x1 = 0.3031	x1 = 0.3949	x1 = 0.4946	x1 = 0.6036	x1 = 0.723	x1 = 0.8545	x1 = 1
298.15 K	832.8 ± 1.2	867.3 ± 1.3	903.5 ± 1.3	942.9 ± 1.4	986 ± 1.5	1032.7 ± 1.6	1083.1 ± 1.6	1138.8 ± 1.7	1198.7 ± 1.8	1258.9 ± 2
303.15 K	828.9 ± 1.3	863.2 ± 1.3	900 ± 1.4	939.3 ± 1.5	982.1 ± 1.5	1029.5 ± 1.6	1079.9 ± 1.7	1135.7 ± 1.8	1195.6 ± 1.9	1255.6 ± 2
308.15 K	825 ± 1.3	859.4 ± 1.4	896 ± 1.5	935.6 ± 1.5	978.4 ± 1.6	1025.9 ± 1.7	1076.3 ± 1.8	1132.4 ± 1.9	1192.7 ± 2	1252.7 ± 2.1
313.15 K	820.7 ± 1.4	855.4 ± 1.4	892.1 ± 1.5	931.5 ± 1.6	974.7 ± 1.7	1022.3 ± 1.8	1072.7 ± 1.8	1128.8 ± 1.9	1189.5 ± 2	1249.5 ± 2.1
318.15 K	816.8 ± 1.4	851.3 ± 1.5	888.3 ± 1.6	927.7 ± 1.6	970.8 ± 1.7	1018.4 ± 1.8	1069.2 ± 1.9	1125.5 ± 2	1186.1 ± 2.1	1246.2 ± 2.2
323.15 K	812.5 ± 1.5	847.2 ± 1.6	884.1 ± 1.6	923.6 ± 1.7	966.8 ± 1.8	1014.7 ± 1.9	1065.5 ± 2	1122 ± 2.1	1182.7 ± 2.2	1242.9 ± 2.3
328.15 K	808.4 ± 1.6	843.1 ± 1.6	880.3 ± 1.7	919.7 ± 1.8	963.3 ± 1.9	1010.8 ± 1.9	1061.8 ± 2	1118.3 ± 2.1	1179.2 ± 2.2	1239.6 ± 2.3
333.15 K	804.3 ± 1.6	839.2 ± 1.7	876.3 ± 1.8	915.7 ± 1.8	959.4 ± 1.9	1006.8 ± 2	1058 ± 2.1	1114.3 ± 2.2	1175.8 ± 2.3	1236 ± 2.4
